In US8710099B2, “Treatment of cancer using the sodium salt of a benzoic acid derivative” (New York University, priority 2009, dated 2014):

Legend:
[1] = system: tyrosinase (from mushrooms); assay: Purified tyrosinase activity, DOPAchrome formation; format: biochemical; conditions: 8.0 mM, up to 10 minutes; FIG. 2
Protocol: Activity of purified tyrosinase was measured by monitoring the formation of DOPAchrome. Briefly, a fixed concentration of L-DOPA (8.0 mM) was incubated with 800 U/ml tyrosinase (from mushrooms-Sigma, St. Louis, Mo.) in the absence or presence of increasing concentrations of PABA, compound 44 (C-44) and compound 45 (C-45) (see FIG. 1 for structures) for indicated time points (see FIG. 2 for concentrations and time points). At each time point, 100 μl of the reaction mixture was measured. Data points represent the mean optical density at 475 nm±SD from triplicate wells.

[2] = system: G361 human melanoma cells; assay: Protein expression in PABA-treated G361 melanoma cells (data not shown); format: cell-based; conditions: G361 cells treated with PABA
PXR/SXR receptor = target: T1, PXR/SXR receptor (Homo sapiens, UniProt O75469); conditions: Moore et al., Mol. Endocrinol. 2002; cited from earlier work
T1 sequence (O75469 1-434): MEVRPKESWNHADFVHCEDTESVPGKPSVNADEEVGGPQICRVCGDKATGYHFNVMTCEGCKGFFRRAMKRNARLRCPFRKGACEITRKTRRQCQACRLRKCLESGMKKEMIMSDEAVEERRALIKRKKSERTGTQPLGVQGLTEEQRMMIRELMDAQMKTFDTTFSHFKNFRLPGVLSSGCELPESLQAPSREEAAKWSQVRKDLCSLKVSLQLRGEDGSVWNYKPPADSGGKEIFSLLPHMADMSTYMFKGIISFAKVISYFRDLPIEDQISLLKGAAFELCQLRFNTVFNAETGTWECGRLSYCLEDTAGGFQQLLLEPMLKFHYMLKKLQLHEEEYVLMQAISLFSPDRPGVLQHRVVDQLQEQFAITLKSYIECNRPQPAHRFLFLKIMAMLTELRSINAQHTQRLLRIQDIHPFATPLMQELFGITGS

[3] = system: 4T1 breast carcinoma cells; assay: Tumor cell proliferation, WST-1 tetrazolium salt cleavage; format: cell-based; conditions: 50 μg/ml test compound, 0.01 μM TAXOL®; vs untreated control; FIG. 3C
Protocol: (§1) Tumor cell proliferation was assessed by monitoring mitochondrial dehydrogenase activity as detected by tetrazolium salt cleavage using a commercially available kit (WST-1; Roche, Indianapolis, Ind.). Briefly, B16F10 melanoma cells, Lewis Lung carcinoma cells, and 4T1 breast carcinoma cells (1×10^6) were resuspended in PABA-free growth medium supplemented with 2.0% fetal bovine serum and 50 μg/ml of test compound (as shown in FIG. 1) Following incubation for 3 days, the cells were either treated or not treated with 0.01 μM TAXOL® and incubated for an additional 48 hours. Proliferation was measured; data points represent the mean optical density at 490 nm±SD from triplicate wells.

B16F10 melanoma cells [4] = assay: as above; format: cell-based; conditions: 50 μg/ml test compound, 0.01 μM TAXOL®; vs untreated control; FIG. 3A
Protocol: as §1

[5] = system: Lewis Lung carcinoma cells; assay: as above; format: cell-based; conditions: 50 μg/ml test compound, 0.01 μM TAXOL®; vs untreated control; FIG. 3B
Protocol: as §1

B16F10 melanoma cells [6] = assay: Chick embryo tumor growth model; format: in vivo, chick embryos; conditions: for growth of the B16F10 tumors: 50 μg/ml C-45, TAXOL® 0.01 μM, FIG. 5B
Protocol: The chick embryo tumor growth model was used to determine whether C-45 enhances the ability of TAXOL® or ionizing radiation to inhibit tumor growth. Briefly, B16F10 melanoma cells were cultured in growth medium in the presence or absence of 50 μg/ml C-45 for at least 7 days. Following harvesting and washing, about 2×10^5 tumor cells were implanted onto the chorioallontoic membranes of 10 day-old chick embryos and incubated for at least 24 hours. Following incubation, the embryos were treated with either a single fractionated dose of radiation (5.0 Gy) or TAXOL® (paclitaxel) (0.01 μM) and incubated for an additional 7 days. The embryos were sacrificed and tumors were resected and weighed (5-10 embryos per condition).

B16F10 melanoma cells [7] = assay: In vivo tumor growth of B16F10 xenografts in nude mice; conditions: daily i.p. for 15 days, TAXOL® 0.5 μM, C-45 100 μg; FIG. 4
Protocol: In addition, tumor growth in vivo of xenografts of B16F10 melanoma cells in nude mice was determined Briefly, subconfluent cultures of B16F10 cells were harvested, washed, and resuspended in sterile PBS. Female nude mice were injected subcutaneously with 1×10^6 cells per mouse and tumors were allowed to grow for 3 days. After 3 days, mice were either untreated or treated daily for 15 days by intraperitoneal injection of TAXOL® (0.5 μM), C-45 (100 μg), or a combination of TAXOL® and C-45. Tumor growth was determined weekly by caliper measurements. After 15 days, the mice were sacrificed and tumor volume was determined by standard methods using the formula […], where V=volume, L=length, and W=width.

SMILES | tyrosinase activity [1] | expression of cell-cycle progression checkpoint protein CDC25A [2] | protein expression of DNA repair protein BRCA-2 [2] | binding to the PXR/SXR receptor (PXR/SXR receptor) | in vitro proliferation of 4T1 breast carcinoma cells [3] | in vitro proliferation of B16F10 cells (B16F10 melanoma cells [4]) | in vitro proliferation of Lewis Lung carcinoma cells [5] | growth of the B16F10 tumors (B16F10 melanoma cells [6]) | tumor growth in vivo, combination with radiation (B16F10 melanoma cells [6]; 50 μg/ml C-45 plus single dose of radiation 5.0 Gy, FIG. 5A) | tumor weight (B16F10 melanoma cells [6]; cells cultured with 50 μg/ml C-45, C-45 alone, FIG. 5A) | in vivo tumor growth compared to untreated controls (B16F10 melanoma cells [7])
Nc1ccc(C(=O)O)cc1 [PABA, para-amino-benzoic-acid] | inhibited tyrosinase activity | increase expression | decreased protein expression | bind to the PXR/SXR receptor | – | – | – | – | – | – | –
C=CCNc1ccc(C(=O)O)cc1 [C-45, 4-allylaminobenzoic acid] | inhibited tyrosinase activity | – | – | – | inhibited in vitro proliferation | inhibited in vitro proliferation | inhibited in vitro proliferation | inhibited the growth of the B16F10 tumors significantly | even more effective at inhibiting tumor growth | reduced tumor weight significantly | neither TAXOL® nor C-45 inhibited in vivo tumor growth
CC(=O)O[C@H]1C(=O)[C@@]2(C)[C@H]([C@H](OC(=O)c3ccccc3)[C@]3(O)C[C@H](OC(=O)[C@H](O)[C@@H](NC(=O)c4ccccc4)c4ccccc4)C(C)=C1C3(C)C)[C@]1(OC(C)=O)CO[C@@H]1C[C@@H]2O [TAXOL®, paclitaxel, reference compound] | – | – | – | – | inhibited in vitro proliferation | inhibited in vitro proliferation | inhibited in vitro proliferation | inhibited the growth of the B16F10 tumors significantly | – | – | neither TAXOL® nor C-45 inhibited in vivo tumor growth
